From article PMC7816042, “Insights into the Structure-Activity Relationship of Glycosides as Positive Allosteric Modulators Acting on P2X7 Receptors” (Molecular Pharmacology, 2021)
Blank lines part the entries; values can stand above or below the compound they belong to.

Key:
human P2X7 [1] = target: T1, human P2X7 (Homo sapiens, UniProt Q99572); assay: YO-PRO-1 dye uptake assay in HEK-hP2X7 cells; format: cell-based; conditions: 10 µM glycoside; for PAM effect on ATP dose-response curve: HEK-hP2X7, result in words; for EC50 ratio: average EC50 for ATP + vehicle of each set of experiments used; for Maximum response (fold increase): maximum response defined at 1 mM ATP
T1 construct: expressed in transfected cells
T1 sequence (Q99572 1-595): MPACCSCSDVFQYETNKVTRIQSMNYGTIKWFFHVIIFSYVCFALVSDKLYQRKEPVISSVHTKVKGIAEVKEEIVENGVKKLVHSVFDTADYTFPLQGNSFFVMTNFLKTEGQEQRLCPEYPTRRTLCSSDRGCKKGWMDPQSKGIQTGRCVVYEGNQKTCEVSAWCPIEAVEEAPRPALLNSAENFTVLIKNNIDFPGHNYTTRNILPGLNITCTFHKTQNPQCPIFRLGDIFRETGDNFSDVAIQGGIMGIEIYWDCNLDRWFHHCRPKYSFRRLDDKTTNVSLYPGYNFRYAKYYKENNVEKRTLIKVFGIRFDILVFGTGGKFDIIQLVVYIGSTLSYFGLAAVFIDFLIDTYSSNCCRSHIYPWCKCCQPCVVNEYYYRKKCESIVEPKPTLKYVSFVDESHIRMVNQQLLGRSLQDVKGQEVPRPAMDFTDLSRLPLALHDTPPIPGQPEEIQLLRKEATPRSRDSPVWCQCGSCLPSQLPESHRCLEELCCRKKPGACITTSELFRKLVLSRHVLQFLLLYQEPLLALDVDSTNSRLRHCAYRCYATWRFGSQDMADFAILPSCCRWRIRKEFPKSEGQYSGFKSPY
Procedure: ATP-induced dye uptake experiments were performed as described previously ([Bidula et al., 2019b]). Briefly, HEK-hP2X7 cells were plated at 2 × 10^4 cells per well (100 μl per well) in complete medium and left overnight to attach to poly-D-lysine–coated 96-well plates. YO-PRO-1 iodide was prepared in a low divalent buffered solution ([…], 2 mM KCl, 13 mM D-glucose, 10 mM HEPES, 0.2 mM CaCl2 pH 7.3) to a final concentration of 2 μM. Medium was removed from the plate using a manual multichannel pipette and YO-PRO-1 containing buffer applied to wells (180 μl per well). […] A Flexstation 3 plate reader (Molecular Devices, Sunnyvale, CA) was used to record YO-PRO-1 fluorescence in HEK-hP2X7 for 300 seconds after the addition of ATP (at 10× final concentration) with/without ginsenoside compounds or vehicle (DMSO). Plates were allowed to warm up to 37°C for 10 minutes before initiating the recording. Baseline recordings were made for 40 seconds before compound addition using the Flexstation 3 fluidics system. YO-PRO-1 fluorescence was measured at 520 nm after excitation at 490 nm (auto cutoff at 495 nm), and the sample interval was 3.5 seconds. Flexstation settings were photomultiplier tube (PMT) medium, six reads per well, pipette height 170, and a rate of injection of 3. Data were acquired using Softmax Pro version 5.4 (Molecular Devices). To analyze the data, area under the dye uptake curve was calculated in Softmax Pro version 5 using zero baseline data with a lag time of 50 seconds (50–300 seconds).
(§1) Results are expressed as means ± S.D. from the indicated number of experiments. For YO-PRO-1 dye uptake and intracellular calcium experiments, each independent experiment used triplicate wells, and the means of the replicates were collated and plotted. Technical replicates were used to ensure reliability of fluorescence values. […] Dose-response curves were plotted by a nonlinear regression fit with variable slope using GraphPad Prism software version 7. Half-maximal responses are expressed as EC50 values with 95% confidence intervals. These values were calculated from the collated data for each compound from three independent experiments. Statistical differences were determined by analysis of the data by one-way ANOVA followed by Dunnett’s multiple comparison test or Sidak’s multiple comparison test using GraphPad Prism version 7. P < 0.05 was the accepted minimum level of significance.

[2] = target: T2, endogenous P2X7 in THP-1 cells (Homo sapiens, UniProt Q99572); assay: Fura-2 calcium measurements in THP-1 monocytes; format: cell-based; conditions: for Effect on ATP-induced calcium response: 500 µM ATP co-applied with 10 µM glycoside
T2 sequence (Q99572 1-394 limits assumed): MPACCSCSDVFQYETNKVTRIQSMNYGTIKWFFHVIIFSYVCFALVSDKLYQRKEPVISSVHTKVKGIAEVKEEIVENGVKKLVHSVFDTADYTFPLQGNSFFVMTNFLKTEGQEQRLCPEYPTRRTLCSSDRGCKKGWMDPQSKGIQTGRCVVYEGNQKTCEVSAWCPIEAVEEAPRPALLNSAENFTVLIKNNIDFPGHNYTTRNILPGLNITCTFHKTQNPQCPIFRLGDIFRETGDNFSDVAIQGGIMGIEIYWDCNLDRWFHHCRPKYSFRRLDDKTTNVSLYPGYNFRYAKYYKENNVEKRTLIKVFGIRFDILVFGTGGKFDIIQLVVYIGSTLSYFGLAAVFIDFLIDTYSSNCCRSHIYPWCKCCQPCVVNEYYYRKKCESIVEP
Procedure: THP-1 cells were pelleted by centrifugation (300g, 5 minute), washed, and resuspended in Hanks’ balanced salt solution buffer containing 2 μM fura-2 AM (HelloBio) and 250 μM (±)-sulfinpyrazone. Cells were loaded for 1 hour in a waterbath at 37°C while shielded from light with foil. Loaded cells were washed once with 5 ml Hanks’ balanced salt solution to remove excess fura-2 AM dye. THP-1 cells were then resuspended, counted, and plated at 2 × 10^5 cells per well in a standard clear 96-well plate (NUNC 167008; Thermo Scientific) in low divalent assay buffer without Mg^2+ (145 mM NaCl, 2 mM KCl and 2 mM CaCl2, 13 mM glucose, 10 mM HEPES, pH 7.3) containing 250 μM (±)-sulfinpyrazone. The 10× concentration of agonist (ATP) was prepared in the same assay buffer. ATP was injected automatically into wells at 30 seconds in a Flexstation 3 microplate reader. Ratiometric data were acquired using 340 and 380 nm for excitation wavelengths, 520 nm as the emission wavelength, and six reads per well (PMT medium). Area under the curve was calculated using standard zero baseline normalization with a lag time 0–300 seconds using SoftMax Pro version 5.4 software.
as §1

human P2X7 [3] = target: T1, human P2X7; design: method as in Helliwell et al., 2015; conditions: ref Helliwell et al., 2015; cited from earlier work
HEK-hP2X7 cells = assay: Cell viability assay (resazurin/Alamar blue) in HEK-hP2X7 cells; format: cell-based, human; conditions: 24 hours
Procedure: HEK-hP2X7 or THP-1 cells were seeded at 5 × 10^3 cells per well in a volume of 100 μl for 24 hours in 96-well plates (Nunclon Edge plates, catalog number 167425; Thermo Scientific). Cells were plated in DMEM:F12 medium or RPMI 1640 medium containing 1% FBS and penicillin/streptomycin for 24 hours in a humidified incubator at 37°C with a constant supply of 5% CO2. Edge wells of the plates were filled with autoclaved distilled water to prevent evaporation of media from wells containing cells. The compounds and ATP were made at 2× final concentration in 1% FBS DMEM:F12 and 100 μl added to the cells for 24 hours. After incubation, resazurin sodium salt (CAS 62758-13-8; Sigma Aldrich) at 0.1 mg/ml in sterile PBS was added to the plate (20 into 200 µl culture medium per well). Cells were incubated for a further 2 hours in a humidified incubator at 37°C with a supply of 5% CO2. A Flexstation 3 microplate reader was used to acquire data. Endpoint fluorescence data were measured using 570 nm excitation wavelength, 600 nm emission wavelength (cutoff at 590 nm), and three reads per well (PMT low). Data were analyzed by performing background correction through subtracting blank medium readings (without cells) from all samples and then normalizing each sample to medium treated cells (control treatment, 100%) as percentage of control.
Results are expressed as means ± S.D. from the indicated number of experiments. For YO-PRO-1 dye uptake and intracellular calcium experiments, each independent experiment used triplicate wells, and the means of the replicates were collated and plotted. Technical replicates were used to ensure reliability of fluorescence values. Cell viability data were normalized to the vehicle control for each experiment after background correction had been performed. Dose-response curves were plotted by a nonlinear regression fit with variable slope using GraphPad Prism software version 7. Half-maximal responses are expressed as EC50 values with 95% confidence intervals. These values were calculated from the collated data for each compound from three independent experiments. Statistical differences were determined by analysis of the data by one-way ANOVA followed by Dunnett’s multiple comparison test or Sidak’s multiple comparison test using GraphPad Prism version 7. P < 0.05 was the accepted minimum level of significance.

SMILES: CC(C)=CCC[C@](C)(O[C@@H]1O[C@H](CO)[C@@H](O)[C@H](O)[C@H]1O)[C@H]1CC[C@]2(C)[C@@H]1[C@H](O)C[C@@H]1[C@@]3(C)CC[C@H](O)C(C)(C)[C@@H]3[C@@H](O)C[C@]12C [Ginsenoside-F1, ginsenoside-F1]
PAM effect on ATP dose-response curve (human P2X7 [1]): did not potentiate P2X7 responses
EC50 ratio (human P2X7 [1]): 1.1
Maximum response (fold increase) (human P2X7 [1]): 1.46 fold
Effect on ATP-induced calcium response [2]: inactive

SMILES: CC(C)=CCC[C@](C)(O)[C@H]1CC[C@]2(C)[C@@H]1[C@H](O)C[C@@H]1[C@@]3(C)CC[C@H](O)C(C)(C)[C@@H]3CC[C@]12C [PPD, protopanaxadiol]
PAM effect on ATP dose-response curve (human P2X7 [1]): no effect on the ATP dose-response curve
PAM activity at human P2X7 (human P2X7 [3]): no activity

Antagonist effect on ginsenoside-CK potentiated calcium response ([2]; 10 µM antagonist pretreatment, 500 µM ATP + ginsenoside-CK): completely abolished
Antagonist effect on calcium response to ATP alone ([2]; 500 µM ATP, antagonist pretreatment): did not dramatically affect
SMILES: O=C1CSC(=O)N1C(CCc1ccncc1)COc1ccc(-c2cccc([N+](=O)[O-])c2)cc1 (centres unmarked) [AZ11645373, reference compound]

SMILES: CC(C)=CCC[C@](C)(O[C@@H]1O[C@H](CO)[C@@H](O)[C@H](O)[C@H]1O)[C@H]1CC[C@]2(C)[C@@H]1[C@H](O)C[C@@H]1[C@@]3(C)CC[C@H](O[C@@H]4O[C@H](CO)[C@@H](O)[C@H](O)[C@H]4O[C@@H]4O[C@H](CO)[C@@H](O)[C@H](O)[C@H]4O)C(C)(C)[C@@H]3CC[C@]12C [Ginsenoside-Rd, ginsenoside-Rd]
PAM effect on ATP dose-response curve (human P2X7 [1]): mixed type I/II effects
EC50 ratio (human P2X7 [1]): 3.8
Maximum response (fold increase) (human P2X7 [1]): 2.77 fold
Effect on ATP-induced calcium response [2]: potentiated
Cell viability in combination with ATP (HEK-hP2X7 cells): very effective at enhancing cell death

SMILES: CC(C)=CCC[C@@](C)(O)[C@H]1CC[C@]2(C)[C@@H]1[C@H](O)C[C@@H]1[C@@]3(C)CC[C@H](O[C@@H]4O[C@H](CO)[C@@H](O)[C@H](O)[C@H]4O[C@@H]4O[C@H](CO)[C@@H](O)[C@H](O)[C@H]4O)C(C)(C)[C@@H]3CC[C@]12C [Ginsenoside-20(R)-Rg3, 20(R)-ginsenoside-Rg3]
PAM effect on ATP dose-response curve (human P2X7 [1]): inactive
EC50 ratio (human P2X7 [1]): 1.0
Maximum response (fold increase) (human P2X7 [1]): 0.94 fold
Cell viability in combination with ATP (HEK-hP2X7 cells): neither gypenoside XVII nor 20(R)-Rg3 in combination with ATP affected cell viability

SMILES: CC(C)=CCC[C@](C)(O)[C@H]1CC[C@]2(C)[C@@H]1[C@H](O)C[C@@H]1[C@@]3(C)CC[C@H](O[C@@H]4O[C@H](CO)[C@@H](O)[C@H](O)[C@H]4O[C@@H]4O[C@H](CO)[C@@H](O)[C@H](O)[C@H]4O)C(C)(C)[C@@H]3CC[C@]12C [Ginsenoside-20(S)-Rg3, 20(S)-ginsenoside-Rg3]
PAM effect on ATP dose-response curve (human P2X7 [1]): positive modulator activity with a reduced EC50 for ATP and increased maximal response
EC50 ratio (human P2X7 [1]): 1.8
Maximum response (fold increase) (human P2X7 [1]): 2.4 fold
Effect on ATP-induced calcium response [2]: potentiated
Cell viability in combination with ATP (HEK-hP2X7 cells): could reduce cell viability

SMILES: CC(C)=CCC[C@](C)(O)[C@H]1CC[C@]2(C)[C@@H]1[C@H](O)C[C@@H]1[C@@]3(C)CC[C@H](O[C@@H]4O[C@H](CO)[C@@H](O)[C@H](O)[C@H]4O)C(C)(C)[C@@H]3CC[C@]12C [ginsenoside-Rh2]
PAM activity at human P2X7 (human P2X7 [3]): able to potentiate hP2X7 responses

SMILES: CC(C)=CCC[C@](C)(O[C@@H]1O[C@H](CO)[C@@H](O)[C@H](O)[C@H]1O)[C@H]1CC[C@]2(C)[C@@H]1[C@H](O)C[C@@H]1[C@@]3(C)CC[C@H](O[C@@H]4O[C@H](CO)[C@@H](O)[C@H](O)[C@H]4O)C(C)(C)[C@@H]3CC[C@]12C [Ginsenoside-F2, ginsenoside-F2]
PAM effect on ATP dose-response curve (human P2X7 [1]): mixed type I/II effect
EC50 ratio (human P2X7 [1]): 5.4
Maximum response (fold increase) (human P2X7 [1]): 2.23 fold
Effect on ATP-induced calcium response [2]: potentiated
Cell viability in combination with ATP (HEK-hP2X7 cells): could reduce cell viability

SMILES: CC(C)=CCC[C@](C)(O[C@@H]1O[C@H](CO[C@@H]2O[C@H](CO)[C@@H](O)[C@H](O)[C@H]2O)[C@@H](O)[C@H](O)[C@H]1O)[C@H]1CC[C@]2(C)[C@@H]1[C@H](O)C[C@@H]1[C@@]3(C)CC[C@H](O[C@@H]4O[C@H](CO)[C@@H](O)[C@H](O)[C@H]4O)C(C)(C)[C@@H]3CC[C@]12C [Gypenoside XVII, gypenoside XVII]
EC50 ratio (human P2X7 [1]): 2.4
Maximum response (fold increase) (human P2X7 [1]): 2.0 fold
Maximum response (fold increase) (human P2X7 [1]; listed as gypenoside XVII): 2 fold
Cell viability in combination with ATP (HEK-hP2X7 cells): neither gypenoside XVII nor 20(R)-Rg3 in combination with ATP affected cell viability
